One data set relates to HepG2 cells. In words: cDNA microarray, drug toxicity and metabolism genes. In kind it is cell-based, human. The note with it: HepG2 cells before and after SIN treatment. The procedure:
The advancement of nucleic acid array technology has made it possible to analyze the expression of multiple genes in a single experiment. The cDNA Microarray is used to characterize gene expression associated with a specific biological pathway in a more comprehensive and cost effective manner. The genes on the cDNA microarray membrane are targeted to the drug toxicity and metabolism pathways. It is a useful approach to study the biological activities of SIN.
HepG2 cells were treated and harvested as described in the foregoing examples. The cell pellet was dissolved in 500 μl TRIzol® reagent (Invitrogen, CA, USA). The whole solution was allowed to stand at room temperature for 5 minutes. The solution was centrifuged at 14,000 rpm for 10 minutes at 4° C. The supernatant was collected in a new tube with 100 μl chloroform. After shaking and incubation for 10 minutes at room temperature, the solution was centrifuged at 14,000 rpm for 15 minutes at 4° C. Recentrifugation was necessary if the layer was not clear. The upper aqueous layer was carefully transferred into a new tube with 250 μl isopropanol. After shaking, the tube was allowed to stand at room temperature for 10 minutes for RNA precipitation. […]
cRNA purification was performed with SuperArray Array Grade cRNA Cleanup Kit. […] The quality and quantity of the cRNA product were determined as described previously. […]

The test system of another data set is Clone 9 cells. In words: Neutral red cell viability assay. In kind it is cell-based, rat. The note with it: SIN up to 1,000 μM, 72 hours. The source says: The neutral red (NR) cytotoxicity assay is a chemosensitivity assay for measuring cell survival/viability, based on the ability of viable cells to incorporate and bind neutral red, a supravital dye. NR is a weak cationic dye that readily penetrates cell membranes by non-ionic diffusion, accumulating intracellularly in lysosomes, where it binds with anionic sites in the lysosomal matrix. Alterations of the cell surface or the sensitive lysosomal membrane lead to lysosomal fragility and other changes that gradually become irreversible. Such changes brought about by the action of xenobiotics result in a decreased uptake and binding of NR. It is thus possible to distinguish between viable, damaged, or dead cells. (Babich, H et al, 1990)
Three different cell lines HepG2, WRL-68 and Clone 9 cell lines were used in the experiment. HepG2 is a human hepatoblastoma cell line. It is a well known cell model in anti-HCC studies (Alshatwi A A, et al, 2006). WRL-68 is a human normal liver embryo cell line that has a morphologic structure similar to hepatocytes and hepatic primary cultures (Gutierrez-Ruiz, et al, 1994). This cell line was used as the control. Clone 9 is the rat Sprague Dawley (SD) liver normal cell line. […]
HepG2, WRL-68 and Clone 9 cells were grown in complete culture medium (RPMI or DMEM), trypsinized and washed. […] The color was measured at OD540nm.

`C=CC/C(=N/OS(=O)(=O)[O-])S[C@@H]1OC(CO)[C@@H](O)C(O)C1O.[K+]` (some centres unmarked) [SIN, sinigrin]: the “gene expression in drug toxicity and metabolism pathways” value in the data set on HepG2 cells is “many genes in drug toxicity and metabolism pathways were differentially expressed”. Moreover, the “cell viability of Clone 9 cells (healthy liver cells)” value in the data set on Clone 9 cells is “no decrease in cell viability was observed”.

These data come from patent US20100120703A1, “COMPOSITIONS AND METHODS FOR TREATING CANCER” (priority 2007, published 2010).
